SMILES strings stand for the structures.

In one experiment the target is T1, recombinant EphB4 kinase (Homo sapiens, UniProt P54760).
T1 construct: purchased ProQinase GmbH, Freiburg, Germany
T1 sequence (P54760 16-987): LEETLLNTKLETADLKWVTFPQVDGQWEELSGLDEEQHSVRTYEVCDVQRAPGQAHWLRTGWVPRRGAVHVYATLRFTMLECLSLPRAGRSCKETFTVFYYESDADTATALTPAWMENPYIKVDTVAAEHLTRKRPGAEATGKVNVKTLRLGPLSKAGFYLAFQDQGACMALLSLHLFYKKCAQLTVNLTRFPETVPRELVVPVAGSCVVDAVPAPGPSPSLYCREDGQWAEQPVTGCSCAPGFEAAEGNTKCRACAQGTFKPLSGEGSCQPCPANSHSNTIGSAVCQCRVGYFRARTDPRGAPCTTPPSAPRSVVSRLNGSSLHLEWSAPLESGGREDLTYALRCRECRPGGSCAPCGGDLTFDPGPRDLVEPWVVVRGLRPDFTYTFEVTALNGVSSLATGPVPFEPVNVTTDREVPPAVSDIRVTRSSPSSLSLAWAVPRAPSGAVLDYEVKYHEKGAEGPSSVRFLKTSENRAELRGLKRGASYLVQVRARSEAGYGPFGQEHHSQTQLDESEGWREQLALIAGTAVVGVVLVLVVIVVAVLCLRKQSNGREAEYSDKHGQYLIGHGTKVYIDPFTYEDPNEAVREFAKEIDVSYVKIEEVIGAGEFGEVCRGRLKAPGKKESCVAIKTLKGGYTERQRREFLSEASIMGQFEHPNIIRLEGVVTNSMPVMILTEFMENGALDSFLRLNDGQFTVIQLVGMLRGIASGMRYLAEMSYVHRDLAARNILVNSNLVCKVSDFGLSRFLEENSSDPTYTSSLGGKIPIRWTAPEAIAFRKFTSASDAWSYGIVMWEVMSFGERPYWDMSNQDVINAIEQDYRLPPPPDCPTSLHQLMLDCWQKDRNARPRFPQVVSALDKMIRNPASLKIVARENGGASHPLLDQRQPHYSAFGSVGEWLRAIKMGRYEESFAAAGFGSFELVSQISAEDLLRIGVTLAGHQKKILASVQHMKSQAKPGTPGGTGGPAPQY
The experiment in a line: Test System for EphB4 (HTRF kinase assay). The settings on record: polyGluAlaTyr substrate, 2 μmol of ATP, read-out: IC50 of EphB4 kinase inhibition. It counts as biochemical. On the procedure: A mixture that consists of 20 ng/ml of recombinant EphB4 kinase (related to ProQinase GmbH, Freiburg, Germany), 2.67 μg/ml of polyGluAlaTyr, 2 μmol of ATP, 25 mmol of HEPES (pH 7.3), 5 mmol of MgCl2, 1 mmol of MnCl2, 2 mmol of DTT, 0.1 mmol of NaVO4, 1% (v/v) glycerol, 0.02% NP40, EDTA-free protease inhibitors (Complete Fa. [Company] Roche, 1 tablet in 50 ml) is incubated at 20° C. for 10 minutes. Test substances are dissolved in 100% DMSO and introduced in 0.017× volume before the beginning of the reaction. 60 minutes after the addition of 1.7× volume of a solution of 50 mmol of Hepes, pH 7.0, 0.2% BSA, 0.14 μg/ml of PT66-europium, 3.84 μg/ml of SA-XL665, and 75 mmol of EDTA, the batch is measured in a Discovery HTRF-measuring device of the PerkinElmer Company.
Consider `COc1cccc(-c2cc(C(C)(C)C)nc3[nH]nc(N)c23)c1` [Example 6, 6-tert-Butyl-4-(3-methoxyphenyl)-1H-pyrazolo[3,4b]pyridin-3-ylamine], for which the IC50 (as a rule, the concentration that inhibits the measured activity by half) turned out to be 6.1 µM.

Staying with this experiment, now noted: polyGluAlaTyr substrate, 2 μmol of ATP, read-out: IC50 of EphB4 kinase inhibition (stated as upper bound).
As for `COc1cccc(-c2cc(C(C)(C)C)nc3[nH]nc(N)c23)c1` [Example 6, 6-tert-Butyl-4-(3-methoxyphenyl)-1H-pyrazolo[3,4b]pyridin-3-ylamine], the IC50 is less than 10 µM. Consider `Cc1ccc(-c2cc(C3CCC(=O)CC3)nc3[nH]nc(N)c23)cc1` [Example 12, 4-(3-Amino-4-p-tolyl-1H-pyrazolo[3,4b]pyridin-6-yl)-cyclohexanone], for which the IC50 is less than 10 µM.

As for `Cc1ccc(-c2cc(C3CCC(N4CCNCC4)CC3)nc3[nH]nc(N)c23)cc1` (centres unmarked) [Example 14, 6-(4-piperazin-1-yl-cyclohexyl)-4-p-tolyl-1H-pyrazolo[3,4b]pyridin-3-ylamine], the IC50 was less than 10 µM.

For `Cc1ccc(-c2cc(C3CCC(N4CCCCC4)CC3)nc3[nH]nc(N)c23)cc1` (centres unmarked) [Example 16, 6-(4-Piperidin-1-yl-cyclohexyl)-4-p-tolyl-1H-pyrazolo[3,4b]pyridin-3-ylamine], the IC50 is less than 10 µM. Same read-out and setting: for `COc1cc(O)cc(-c2cc(-c3ccncc3)nc3[nH]nc(N)c23)c1` [Example 33, 3-(3-Amino-6-pyridin-4-yl-1H-pyrazolo[3,4-b]pyridin-4-yl)-5-methoxyphenol] the value was less than 10 µM; for `Cc1ccc(O)cc1-c1cc(-c2ccncc2)nc2[nH]nc(N)c12` [Example 35, 3-(3-Amino-6-pyridin-4-yl-1H-pyrazolo[3,4-b]pyridin-4-yl)-4-methyl-phenol], less than 10 µM.

On to `COc1cc(OC)cc(-c2cc(C(C)(C)C)nc3[nH]nc(N)c23)c1` [Example 39, 6-tert-Butyl-4-(3,5-dimethoxyphenyl)-1H-pyrazolo[3,4-b]pyridin-3-ylamine], for which the IC50 was less than 10 µM.

With `CC(C)Oc1cc(O)cc(-c2cc(C(C)(C)C)nc3[nH]nc(N)c23)c1` [Example 40], the IC50 was less than 10 µM. In the case of `CC(C)(C)c1cc(-c2cc(O)ccc2[N+](=O)[O-])c2c(N)n[nH]c2n1` [Example 41, 3-(3-Amino-6-tert-butyl-1H-pyrazolo[3,4b]pyridin-4-yl)-4-nitro-phenol], the IC50 is less than 10 µM. As for `Nc1n[nH]c2nc(C3CC3)cc(-c3ccc(Cl)c(Cl)c3)c12` [Example 51, 6-Cyclopropyl-4-(3,4-dichlorophenyl)-1H-pyrazolo[3,4-b]pyridin-3-ylamine], the IC50 is less than 10 µM.
